# Laboratory results: patent publication US10487112B2, “Pediococcus acidilactici derived antimicrobial hexapeptide and preparation method thereof” (Jiangnan University, priority 2016, dated 2019)
# Like-named read-outs stand apart in the source and are kept apart here. No end group written: not given here.
# What was measured:
# [1] = tested on: Escherichia coli ATCC 25922; assay: Antimicrobial spectrum, oxford-cup method; type: cell-based; parameters: key: “+++” represents for strong inhibition; “++” represents for relatively strong inhibition; “+” represents for inhibition; “−” represents for no inhibition; details: 100 mg·mL^−1, oxford-cup
# Description: (§1) 8 parts of purified active substance lactein R16 with the concentration of 100 mg·mL^−1 is selected, and an inhibiting effect of the lactein R16 on Escherichia coli, Listeria monocytogenes and Staphylococcus aureus is detected by using an oxford-cup method.
# [2] = tested on: Staphylococcus aureus ATCC 6538; assay: Antimicrobial spectrum, oxford-cup method; type: cell-based; parameters: key to Antimicrobial level: “+++” represents for strong inhibition; “++” represents for relatively strong inhibition; “+” represents for inhibition; “−” represents for no inhibition; details: 100 mg·mL^−1, oxford-cup
# Description: as §1
# [3] = tested on: Listeria monocytogenes CMCC(B)54002; assay: Antimicrobial spectrum, oxford-cup method; type: cell-based; parameters: key to Antimicrobial level: “+++” represents for strong inhibition; “++” represents for relatively strong inhibition; “+” represents for inhibition; “−” represents for no inhibition; details: 100 mg·mL^−1, oxford-cup
# Description: as §1
# Escherichia coli JM109 = assay: Antimicrobial spectrum, oxford-cup method; type: cell-based; parameters: key to Antimicrobial level: “+++” represents for strong inhibition; “++” represents for relatively strong inhibition; “+” represents for inhibition; “−” represents for no inhibition; details: 100 mg·mL^−1, oxford-cup
# Description: as §1
# Escherichia coli K99 = assay: Antimicrobial spectrum, oxford-cup method; type: cell-based; parameters: key to Antimicrobial level: “+++” represents for strong inhibition; “++” represents for relatively strong inhibition; “+” represents for inhibition; “−” represents for no inhibition; details: 100 mg·mL^−1, oxford-cup
# Description: as §1
# Escherichia coli [4] = assay: Thermal stability of lactein R16 (antimicrobial experiment after heat treatment); type: physicochemical
# Description: 8 parts of purified active substance lactein R16 with the concentration of 100 mg·mL^−1 is selected and is respectively treated at 40° C., 50° C., 60° C., 70° C., 80° C., 90° C. and 100° C. for 30 min and is subjected to high-pressure sterilization at 121° C. for 15 min, and an antimicrobial experiment is performed to observe the inhibition of the lactein R16 to Escherichia coli. The result is shown as FIG. 3.
# The antimicrobial activity of the lactein R16 is lost by 59.98% after the lactein R16 is treated at 121° C. for 15 min.
# Bacillus subtilis = assay: Influences on probiotics, viable count; type: cell-based; details: MRS medium with 6.4 mg·mL^−1, 37° C.
# Description: (§2) Each of probiotics is subjected to two-stage activation, is inoculated into an MRS culture medium containing 6.4 mg·mL^−1 of antimicrobial active substances according to the inoculation amount of 1% and is cultured at the constant temperature of 37° C. for 24 h in contrast with the probiotics inoculated into the MRS culture medium. Coated plate counting is performed by using a viable count method. The result is shown as FIG. 4.
# (§3) A microecological preparation used as one of green feed additives is widely applied to the feed, wherein a composite microecological preparation prepared from Saccharomycetes, Lactic Acid Bacteria and Bacillus is more common, not only can degrade and soften crude fibers and increase the content of proteins, but also can improve the palatability of the feed, regulate the intestinal microecological balance of the animals and promote digestive absorption and growth. Saccharomyces cerevisiae, Pediococcus pentosaceus, Enterococcus faecium, Lactobacillus plantarum and Bacillus subtilis are selected as a study object to study the influences of the lactein R16 on Saccharomyces cerevisiae, Pediococcus pentosaceus, Enterococcus faecium, Lactobacillus plantarum and Bacillus subtilis, and the result is shown as FIG. 4.
# Pediococcus pentosaceus = assay: Influences on probiotics, viable count; type: cell-based; details: MRS medium with 6.4 mg·mL^−1, 37° C., 24 h
# Description: as §2, §3
# Enterococcus faecium = assay: Influences on probiotics, viable count; type: cell-based; details: MRS medium with 6.4 mg·mL^−1, 37° C.
# Description: as §2, §3
# Saccharomyces cerevisiae = assay: Influences on probiotics, viable count; type: cell-based; details: MRS medium with 6.4 mg·mL^−1, 37° C., 24 h
# Description: as §2, §3
# Lactobacillus plantarum = assay: Influences on probiotics, viable count; type: cell-based; details: MRS medium with 6.4 mg·mL^−1, 37° C., 24 h
# Description: as §2, §3
# [5] = tested on: Escherichia coli in the soybean meal; assay: Inhibition of Escherichia coli in fermented soybean meal; type: cell-based; details: 48 h; for removal rate: 37° C.
# Description: (a) crushing soybean meal by using a blade crusher, adding 4 parts (the weight of each part is 40 g) of soybean meal with the serial numbers of group 5, group 6, group 7 and group 8 into a 500 mL fermentation flask, and carrying out sterilization at 105° C. for 10 min;
# (b) carrying out fermentation under conditions shown as table 3.
# (c) measuring the amount of Escherichia coli according to the natural standard for measuring Escherichia coli in the feed.
# The inhibiting effect of the lactein R16 to Escherichia coli in the soybean meal is studied by adding Escherichia coli into the sterilized soybean meal.
# [6] = Antioxidant capability, clearing hydroxyl radicals
# Source text: (§4) The feed contains a certain quantity of unsaturated fat, fatty acid, lipid-soluble vitamin, carotenoid and other lipid-soluble substances, which are easily oxidized in a storage process of the feed, and particularly fat and fatty acid can be oxidized to result in rancidity to generate different compounds such as aldehyde, alcohol, fat and acid which may generate various peculiar smells to seriously affect the palatability of the feed, and some compounds can generate adverse effects for the animals due to certain toxicity. The antioxidant capability of the lactein R16 to hydrogen peroxide, hydroxyl radicals, DPPH.radicals and superoxide anions is shown as FIG. 5.
# [7] = tested on: Staphylococcus aureus ATCC 6538; type: cell-based
# Description: (§5) The antimicrobial activity is detected by adopting a minimum inhibitory concentration (MIC) method, and the operation is as follows:
# (§6) (a) inoculating the bacteria into an LB liquid culture medium according to the inoculation amount of 1%, and carrying out shaking culture over the night at 37° C. and 200r·min^−1;
# (§7) (b) inoculating the culture solution into 20 mL of the LB liquid culture medium according to the inoculation amount of 1%, and carrying out shaking culture at 37° C. and 200r·min′ until the OD600 is equal to about 0.5; […]
# (§8) (e) adding 450 μL of the prepared bacterial suspension into an aseptic tissue culture plate, and then, respectively adding 50 μL of antimicrobial active substance diluents with corresponding concentrations to ensure that the concentrations of to-be-measured antimicrobial active substances are respectively 25.6, 12.8, 6.4, 3.2, 1.6, 0.8, 0.4, 0.2 and 0.1 mg·mL^−1; and carrying out culture in a 37° C. constant-temperature incubator for 18-24 h by taking 500 μL of the bacterial suspension as a positive control and 500 μL of the LB liquid culture medium as a negative control; and […]
# [8] = Antioxidant capability, clearing superoxide anions
# Source text: as §4
# [9] = Antioxidant capability, clearing hydrogen peroxide
# Source text: as §4
# Escherichia coli [10] = assay: Stability of lactein R16 in pH (antimicrobial experiment after pH treatment); type: physicochemical
# Description: 10 parts of purified active substance lactein R16 with the concentration of 100 mg·mL^−1 is selected, the pH of the lactein R16 is respectively regulated to be 1.0-10.0 by using 1.0 mol·L^−1 NaOH and 1.0 mol·L^−1 HCl, the lactein R16 is treated in a 37° C. water bath kettle for 2 h, then, the pH of the lactein R16 is regulated to be 4.5, and an antimicrobial experiment is performed to observe the inhibition of the lactein R16 to Escherichia coli. The result is shown as FIG. 2.
# The antimicrobial activity of the lactein R16 is reduced step by step when the pH is 6.0-8.0, the reduction tendency is slow, and the residual activity is maintained at about 75%, which proves that the stability of the lactein R16 is reduced to a certain extent under such pH condition, but the pH has little influences on the stability of the lactein R16.
# [11] = tested on: Listeria monocytogenes CMCC(B)54002; assay: Minimum inhibitory concentration (MIC) method; type: cell-based; details: LB medium, 37° C., 18-24 h
# Description: as §5, §6, §7, §8
# [12] = Antioxidant capability, clearing DPPH radicals
# Source text: as §4
substance,measurement,setting,value
"ENGEEE [lactein R16, ENGEEE]",Antimicrobial level,[1],+
same,Antimicrobial level,[2],+++
same,antimicrobial activity (in words),[2],strongest
same,Antimicrobial level,[3],++
same,antimicrobial activity (in words),[3],relatively strong antimicrobial activity
same,Antimicrobial level,Escherichia coli JM109,++
same,antimicrobial activity (in words),Escherichia coli JM109,relatively strong antimicrobial activity
same,Antimicrobial level,Escherichia coli K99,++
same,antimicrobial activity (in words),Escherichia coli K99,relatively strong antimicrobial activity
same,activity retained in the process of pelletizing,Escherichia coli [4]; pelletizing at 75-85° C. for 1-2 min,completely retained
same,thermal stability,Escherichia coli [4]; summary statement,good
same,change of antimicrobial activity,"Escherichia coli [4]; treated at 40, 50, 60, 70 and 80° C. for 30 min, 100 mg·mL^−1",no obvious changes
same,antimicrobial activity lost,Escherichia coli [4]; treated at 90° C. for 30 min,21.95%
same,antimicrobial activity lost,Escherichia coli [4]; treated at 100° C. for 30 min,49.47%
same,antimicrobial activity lost,Escherichia coli [4]; treated at 121° C. for 15 min (high-pressure sterilization),59.98%
same,total bacterial count after growing for 24 h,Bacillus subtilis,about 10^8 CFU·mL^−1
same,total bacterial count reduced as comparison with contrast,Bacillus subtilis; 24 h,4.03%
same,change of total bacterial count as comparison with contrast,Pediococcus pentosaceus,no obvious changes
same,total bacterial count after growing for 24 h,Enterococcus faecium,about 10^8 CFU·mL^−1
same,total bacterial count reduced as comparison with contrast,Enterococcus faecium; 24 h,6.92%
same,amount of Saccharomyces cerevisiae increased as comparison with contrast,Saccharomyces cerevisiae,24.50%
same,effect on Saccharomyces cerevisiae (in words),Saccharomyces cerevisiae,a certain effect on proliferating
same,effect on Lactobacillus plantarum (in words),Lactobacillus plantarum,a certain effect on proliferating
same,amount of Escherichia coli after fermentation,"[5]; 0.512 g in 40 g soybean meal, material-to-liquid ratio 1:0.8, 37° C., 1380·100 g^−1 before fermentation",123 ·100 g^−1
same,removal rate,"[5]; material-to-liquid ratio 1:0.8, 0.512 g in 40 g soybean meal",33.44%
same,removal rate,"[5]; material-water ratio 1:0.12, 0.512 g in 40 g soybean meal",56.64%
same,clearance rate,[6],70.13%
same,MIC,[7]; ATCC 6538,3400 µg/mL
same,MIC,"[7]; LB medium, 37° C., 18-24 h",3200 µg/mL
same,clearance rate,[8],10.11%
same,clearance rate,[9],25.65%
same,pH at which the antimicrobial activity reaches the maximum,"Escherichia coli [10]; 100 mg·mL^−1, pH 1.0-10.0, 37° C. water bath 2 h, then pH 4.5, inhibition of Escherichia coli",3.0-5.0
same,residual activity,"Escherichia coli [10]; pH 6.0-8.0, 37° C. 2 h, inhibition of Escherichia coli",about 75%
same,pH stability,Escherichia coli [10]; summary statement,good
same,MIC,[11],6400 µg/mL
same,clearance rate,[12],79.42%
